Patent US20080081781A1, “Methods and compositions for the treatment of metabolic syndrome” (priority 2004, published 2008)

Assays:
[1] = tested on: patients with metabolic syndrome; test: Berberine in patients with metabolic syndrome (Table 10); format: in vivo, human; settings: for Blood Pressure / Blood Cholesterol / Blood Insulin / Blood Triglyceride / FBG (fasting blood glucose): patients with metabolic syndrome (n = 28); for Blood Cholesterol / Blood Insulin / Blood Triglyceride / FBG (fasting blood glucose): means ± SEs
Source text: Twenty-eight patients 28 (male/female, 17/11; age, 57±8 y) were diagnosed as having metabolic syndrome if they met three or more of the following criteria: fasting blood glucose>7 mmol/L, serum triglyceride>1.7 mmol/L, fasting blood insulin>13 mmcU/mL, blood pressure>135/85 and/or BMI>23. (Eckel, Lancet 365 (9468), 1415-28 (2005); Executive Summary, JAMA 285, 2486-2497 (2001); Balkau, Diabet. Med. 16, 442-443 (1999)) The patients were enrolled in this study at the Nanjing First Hospital, Nanjing, China. The patients were requested to end previous medications or therapies for at least two weeks prior to the beginning of the study.
The patients were then given 1 gram of berberine per day, orally for two months. Blood samples were taken both before and after two months of berberine treatment. Fasting blood levels of glucose, LDL-c, cholesterol, HDL-c, triglyceride and blood insulin were measured using standard methods routinely applied in hospitals. Liver and kidney functions were also monitored in the patients.

LDLR mRNA 3'UTR = test: Luc-LDLR 3'UTR chimeric transcripts in transfected HepG2 cells; format: cell-based, human; settings: transfected HepG2, berberine eight hours
Source text: Three consecutive fragments of LDLR 3 ′UTR were inserted into a cytomegalovirus promoter driven Luc plasmid (pLuc) at the 3′ end of the Luc coding sequence before the SV40 polyadenylation signal. The wild-type Luc reporter plasmid pLuc was constructed by insertion of the Luc cDNA into the HindIII and Xba sites of pcDNA3.1/Zeo(+). Addition of the LDLR 3/UTR was accomplished by PCR amplifying different regions of the 2.5 kb 3′UTR of LDLR mRNA using XbaI-tailed primers and pLDLR3 as the template. The wild type pLuc and the chimeric plasmids pLuc-UTR-2, UTR-3 and UTR-4 were transfected into HepG2 cells (FIG. 11). Cells seeded in culture dishes were transiently transfected with the chimeric plasmids. Twenty-four hours after transfection, cells were trypsinized and reseeded equally into two dishes for each plasmid transfection. After overnight incubation, one dish was treated with dimethylsulfoxide as the solvent control and another was treated with berberine for eight hours. […]
To create ARE deletion constructs, an Apa site at nt 3,384 was generated for deleting ARE3, and an Apa1 site at nt 3,334 for deleting ARE2 by site-directed mutagenesis using pLuc/UTR-2 as the template. […] The effects of berberine on the chimeric Luc transcripts were determined by measuring Luc mRNA using a quantitative real-time RT-PCR assay. […]

PKC = PKC activity in rat liver (PepTag assay); format: in vivo; settings: berberine treated rats
Procedure: The livers were dissected and stored in liquid nitrogen for RNA extraction, real-time RT-PCR and PKC activity assay. Total blood samples were also collected to assay fasting blood glucose and serum insulin levels. The insulin levels were analyzed using radio-immunoassay (Linco Research, St Charles, Mo.). The insulin sensitivity indexes (ISI) were calculated according to the formula: 10^4/(fasting serum insulin X fasting blood glucose) (Hanson, Am. J. Epidemiol. 15 1(2), 190-198 (2000)). The insulin level and ISI of normal rats were also determined for comparison. […] It also elevated the fasting blood glucose from 7 to 12.8 mmol/L (P<0.001).
PKC activity was analyzed using the PepTag® Assay for Non-Radioactive Detection of Protein Kinase-C or cAMP-Dependent Protein Kinase kit (Promega) according to the protocol. Briefly, after homogenization and partial purification, […] was mixed with 5 μl of PepTag® Cl peptide (specific substrate of PKC), 5 μl of reaction buffer and 5 μl of PKC activator solution in a 25 μl reaction system. […] They were transferred to a 96-well plate and quantified using densitometry according to the supplier's protocol. The catalytic activity of total PKC of a specific sample was expressed as pmol/min/mg, representing the number of picomoles of phosphate transferred to the substrate per minute per milligram of proteins of the sample.

in vivo = settings: beagle, dog, iv, 100 mg/kg
Procedure: Four beagles were injected intravenously with 100 mg/kg of berberine. Using a two compartment model, the pharmacokinetic parameter estimates were as follows: […]

LDLR promoter = LDLR promoter activity, pLDLR234Luc reporter in HepG2 cells; format: cell-based, human; settings: pLDLR234Luc HepG2, LPDS or LPDS and cholesterol medium, 8 hour treatment
Source text: HepG2 cells were transfected with the reporter construct pLDLR234Luc, which contains the SRE- I motif and the sterol-independent regulatory element that mediates the cytokine oncostatin M-induced transcription of the LDLR gene.

PPAR-r mRNA = PPAR-r mRNA expression in liver cells; format: cell-based; settings: liver cells (data not shown)
Source text: The effect of berberine on InsR was further confirmed in another hepatoma cell line, Bel-7402 […] (FIG. 18). […] The expression of PPAR-r mRNA in liver cells was not changed by berberine (data not shown).

[2] = After BBR treatment 1 g/day, Bid, 2 months

COc1ccc2cc3[n+](cc2c1OC)CCc1cc2c(cc1-3)OCO2 [berberine]
fasting blood glucose after treatment ([1]; 1 gram per day orally, two months, Mean ±SE, before 10.7±0.56): 8.0 ± 0.45 mmol/L | cholesterol after treatment ([1]; 1 gram per day orally, two months, before 6.1±±0.11): 4.7 ± 0.16 mmol/L | blood pressure after treatment ([1]; 1 gram per day orally, two months, before 156/86): 133/79 | Blood Pressure [1, 2]: 133/79 | Blood Cholesterol [1, 2]: 4.7 ± 0.16 mmol/L | Blood Insulin [1, 2]: 12.1 ± 1.35 mlU/L | Blood Triglyceride [1, 2]: 1.47 ± 0.14 mmol/L | FBG (fasting blood glucose) [1, 2]: 8.0 ± 0.45 mmol/L | Blood Pressure ([1]; Before BBR treatment): 156/86 | Blood Cholesterol ([1]; Before BBR treatment): 6.1 ± 0.11 mmol/L | Blood Insulin ([1]; Before BBR treatment): 17 ± 2.15 mlU/L | Blood Triglyceride ([1]; Before BBR treatment): 2.0 ± 0.22 mmol/L | FBG (fasting blood glucose) ([1]; Before BBR treatment): 10.7 ± 0.56 mmol/L | expressions of LucUTR-3 and Luc-UTR-4 or the wild type (LDLR mRNA 3'UTR): without affecting | increase of level of Luc-UTR-2 mRNA (LDLR mRNA 3'UTR): 2.5 fold | activity of PKC in the livers (PKC): increased activity of PKC | AUC (in vivo): 1980 ± 1140 ng·h/mL | clearance (in vivo): 1010 mL/min | half-life (in vivo): 12.6 ± 8.83 h | LDLR promoter activity (LDLR promoter): no effect | expression of PPAR-r mRNA (PPAR-r mRNA): not changed
